The values below come from patent US12649723B2, “Carbonohydrazonoyl dicyanide compounds comprising 2 or more aryl or heteroaryl connected via linker and use thereof” (KOREA INSTITUTE OF SCIENCE AND TECHNOLOGY, priority 2020, dated 2026).

Molecules are shown by their SMILES.

A short description of data set [1]: Liver microsome stability. It is filed as in vitro ADME, rat. The following applies: amount of substrate remaining; compound 1 μM, 30 minutes, 37° C., NADPH. The method, boiled down:
(§1)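 Human, dog, rat and mouse liver microsomes (0.25 mg/mL) with 1 μM compound in 0.1 M phosphate buffer pH 7.4, preincubated 5 min at 37° C, then incubated 30 min at 37° C with NADPH-generating system. Reaction stopped with acetonitrile containing internal standard; remaining parent quantified by LC-MS/MS.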
On the technique in general: Liver microsomes are a subcellular fraction often used to study metabolism.

In a further data set the target is T1, tau protein (Homo sapiens, UniProt P10636).
T1 construct: fused on or other part: Split fluorescent-protein halves for BiFC are fused to tau; In the published tau-BiFC line these are Venus VN173 and VC155
T1 sequence (P10636 2-441 isoform P10636-8 limits assumed): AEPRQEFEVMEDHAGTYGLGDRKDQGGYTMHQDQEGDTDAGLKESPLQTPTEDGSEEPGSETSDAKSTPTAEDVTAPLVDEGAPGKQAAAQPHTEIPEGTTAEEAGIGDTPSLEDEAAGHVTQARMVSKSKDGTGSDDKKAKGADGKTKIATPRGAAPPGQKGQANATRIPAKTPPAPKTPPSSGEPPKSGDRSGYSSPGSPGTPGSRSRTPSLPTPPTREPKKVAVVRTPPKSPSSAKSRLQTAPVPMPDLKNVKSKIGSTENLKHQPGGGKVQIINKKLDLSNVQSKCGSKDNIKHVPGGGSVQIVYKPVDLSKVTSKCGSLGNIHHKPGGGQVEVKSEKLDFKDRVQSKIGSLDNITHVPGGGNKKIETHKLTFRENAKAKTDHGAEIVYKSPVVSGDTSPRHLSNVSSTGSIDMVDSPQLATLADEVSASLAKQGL
Put plainly: Tau-BiFC cell model: inhibition of tau protein aggregation. It is filed as cell-based. The method, boiled down: (§2)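 Tau-BiFC cells were exposed for 48 h to compound (1, 3, 10 μM for screening; 0.03–30 μM for dose-response) plus 30 μM Forskolin to induce aggregation. BiFC fluorescence was normalised to Forskolin-only minus untreated controls, with IC50 from nonlinear regression. Viability was Hoechst-stained nuclei counts relative to Forskolin-only wells.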

A further data set addresses T2, CYP3A4 (Homo sapiens, UniProt P08684).
T2 construct: human liver microsomes (0.25 mg/mL); from tissue; host or cells: human liver microsomes
As to the kind of experiment: Inhibitory effect on CYP coenzyme activity, human liver microsomes. In kind it is in vitro ADME. The conditions noted are these: compound 10 μM; human liver microsomes 0.25 mg/mL; substrate midazolam; 15 minutes. The method, boiled down:
(§3)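 Human liver microsomes (0.25 mg/mL, pH 7.4) were incubated with a substrate cocktail (10 μM diclofenac, 100 μM S-mephenytoin, 5 μM dextromethorphan, 2.5 μM midazolam) and compound at 0 or 10 μM. After 5 min preincubation at 37 °C, NADPH was added for 15 min. Metabolites were quantified by LC-MS/MS MRM.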

Another data set addresses T3, CYP2C9 (Homo sapiens, UniProt P11712).
T3 construct: human liver microsomes (0.25 mg/mL); from tissue; host or cells: human liver microsomes
The description is as above. It is filed as in vitro ADME. The conditions noted are these: compound 10 μM; human liver microsomes 0.25 mg/mL; substrate diclofenac; 15 minutes. The method, boiled down: as §3

For the next data set, the target named is T4, CYP2C19 (Homo sapiens, UniProt P33261).
T4 construct: human liver microsomes (0.25 mg/mL); from tissue; host or cells: human liver microsomes
T4 sequence (P33261 whole entry): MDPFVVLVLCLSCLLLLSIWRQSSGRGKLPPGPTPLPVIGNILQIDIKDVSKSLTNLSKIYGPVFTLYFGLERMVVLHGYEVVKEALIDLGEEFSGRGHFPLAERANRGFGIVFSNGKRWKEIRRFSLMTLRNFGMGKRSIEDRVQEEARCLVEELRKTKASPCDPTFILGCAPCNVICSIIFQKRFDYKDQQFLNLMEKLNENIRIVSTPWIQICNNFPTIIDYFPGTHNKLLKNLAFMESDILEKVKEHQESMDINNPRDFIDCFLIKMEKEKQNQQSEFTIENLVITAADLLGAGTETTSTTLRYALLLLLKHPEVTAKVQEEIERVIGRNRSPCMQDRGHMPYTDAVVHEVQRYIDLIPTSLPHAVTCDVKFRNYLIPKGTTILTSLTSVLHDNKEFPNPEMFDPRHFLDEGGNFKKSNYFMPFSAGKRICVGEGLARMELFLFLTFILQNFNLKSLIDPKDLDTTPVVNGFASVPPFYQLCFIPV
Described as above. In kind it is in vitro ADME. The conditions noted are these: compound 10 μM; human liver microsomes 0.25 mg/mL; substrate S-mephenytoin; 15 minutes. The method, boiled down:
as §3

Another data set deals with T5, CYP1A2 (Homo sapiens, UniProt P05177).
T5 construct: human liver microsomes (0.25 mg/mL); from tissue; host or cells: human liver microsomes
T5 sequence (P05177 1-516): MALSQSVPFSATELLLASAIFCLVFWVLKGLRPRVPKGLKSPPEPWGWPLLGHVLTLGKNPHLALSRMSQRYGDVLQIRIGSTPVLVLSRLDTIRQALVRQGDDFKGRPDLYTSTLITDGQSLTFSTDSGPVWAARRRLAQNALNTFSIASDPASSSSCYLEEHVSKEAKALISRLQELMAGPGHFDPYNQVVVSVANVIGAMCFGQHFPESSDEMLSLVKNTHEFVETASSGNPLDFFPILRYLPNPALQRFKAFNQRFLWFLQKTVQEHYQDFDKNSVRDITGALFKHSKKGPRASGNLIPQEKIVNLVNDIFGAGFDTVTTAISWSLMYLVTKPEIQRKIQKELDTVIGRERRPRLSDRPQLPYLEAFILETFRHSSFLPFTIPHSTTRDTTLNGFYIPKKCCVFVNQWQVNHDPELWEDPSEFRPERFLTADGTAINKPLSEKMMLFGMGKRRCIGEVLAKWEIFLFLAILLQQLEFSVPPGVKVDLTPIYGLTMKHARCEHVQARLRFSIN
The data set is described as above. It is filed as in vitro ADME. The conditions noted are these: compound 10 μM; human liver microsomes 0.25 mg/mL; substrate phenacetin; 15 minutes. The method, boiled down:
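Inhibition of probe metabolism was assessed at a single 10 μM compound concentration against 0 μM, using 0.25 mg/mL liver microsomes and cocktail substrates (midazolam 2.5 μM, dextromethorphan 5 μM, S-mephenytoin 100 μM, diclofenac 10 μM, phenacetin 50 μM), with a 15-min NADPH-driven reaction at 37 °C.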

Another data set deals with T6, CYP2D6 (Homo sapiens, UniProt P10635).
T6 construct: human liver microsomes (0.25 mg/mL); from tissue; host or cells: human liver microsomes
T6 sequence (P10635 whole entry): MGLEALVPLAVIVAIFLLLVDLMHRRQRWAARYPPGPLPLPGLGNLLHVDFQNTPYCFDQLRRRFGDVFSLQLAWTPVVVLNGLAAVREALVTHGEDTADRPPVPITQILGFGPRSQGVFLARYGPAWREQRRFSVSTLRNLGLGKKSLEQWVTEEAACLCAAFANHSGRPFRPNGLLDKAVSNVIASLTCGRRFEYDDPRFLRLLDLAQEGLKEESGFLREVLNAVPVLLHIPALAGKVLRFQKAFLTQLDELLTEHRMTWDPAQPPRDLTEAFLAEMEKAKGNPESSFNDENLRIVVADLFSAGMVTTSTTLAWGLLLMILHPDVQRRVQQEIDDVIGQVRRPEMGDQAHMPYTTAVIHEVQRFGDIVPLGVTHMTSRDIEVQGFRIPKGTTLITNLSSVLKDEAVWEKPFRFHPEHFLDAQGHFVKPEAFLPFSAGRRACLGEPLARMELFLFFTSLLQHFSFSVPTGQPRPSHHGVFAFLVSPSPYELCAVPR
The description is as above. In kind it is in vitro ADME. The following applies: compound 10 μM; human liver microsomes 0.25 mg/mL; substrate dextromethorphan; 15 minutes. The method, boiled down: as §3

A short description of data set [2]: Liver microsome stability. The following applies: amount of substrate remaining; compound 1 μM, 30 minutes, 37° C., NADPH. It is filed as in vitro ADME, mouse. The method, boiled down:
as §1

The subject of the next data set is Tau-BiFC cells. Put plainly: Cell viability (cytotoxicity) in tau-BiFC cells, count of stained nuclei. In kind it is cell-based. The conditions noted are these: compound 10 μM; Forskolin-only group = 100% cell viability. The method, boiled down: as §2
The nature of data set [3]: Liver microsome stability. In kind it is in vitro ADME, human. The conditions noted are these: amount of substrate remaining; compound 1 μM, 30 minutes, 37° C., NADPH. The method, boiled down: as §1
Data set [4] in a line: Liver microsome stability. The conditions noted are these: amount of substrate remaining; compound 1 μM, 30 minutes, 37° C., NADPH. It is filed as in vitro ADME, dog. As for the experimental part: The stability of liver microsomes due to the compounds prepared according to Examples 1 to 175 was confirmed. Specifically, four types of liver microsomes (human, dog, rat, and mouse, each 0.25 mg/mL), a 0.1 M phosphate buffer solution (pH 7.4), and each of the compounds at a concentration of 1 μM were mixed and pre-cultured at 37° C. for 5 minutes and further cultured at 37° C. for 30 minutes together with an NADPH generation system solution added thereto. Thereafter, the reaction was terminated by adding an acetonitrile solution containing an internal standard material (chloropropamide) and centrifuged for 5 minutes (14,000 rpm, 4° C.), and then a supernatant was injected into an LC-MS/MS system for analysis of substrate drugs to thereby evaluate metabolic stability due to 8 types of compounds.
The amount of the substrate remaining after the reaction was analyzed using the Shimadzu Nexera XR system and TSQ Vantage (Thermo). In an HPLC column, Kinetex XB-C18 (2.1 mm×100 mm, particle size of 2.6 μm; Phenomenex, USA) was used, and mobile phases were (A) distilled water containing 0.1% formic acid and (B) acetonitrile containing 0.1% formic acid. Analyst software (version 1.6.3) and Xcalibur (version 1.6.1) were used for data analysis.

T2 sequence (P08684 whole entry): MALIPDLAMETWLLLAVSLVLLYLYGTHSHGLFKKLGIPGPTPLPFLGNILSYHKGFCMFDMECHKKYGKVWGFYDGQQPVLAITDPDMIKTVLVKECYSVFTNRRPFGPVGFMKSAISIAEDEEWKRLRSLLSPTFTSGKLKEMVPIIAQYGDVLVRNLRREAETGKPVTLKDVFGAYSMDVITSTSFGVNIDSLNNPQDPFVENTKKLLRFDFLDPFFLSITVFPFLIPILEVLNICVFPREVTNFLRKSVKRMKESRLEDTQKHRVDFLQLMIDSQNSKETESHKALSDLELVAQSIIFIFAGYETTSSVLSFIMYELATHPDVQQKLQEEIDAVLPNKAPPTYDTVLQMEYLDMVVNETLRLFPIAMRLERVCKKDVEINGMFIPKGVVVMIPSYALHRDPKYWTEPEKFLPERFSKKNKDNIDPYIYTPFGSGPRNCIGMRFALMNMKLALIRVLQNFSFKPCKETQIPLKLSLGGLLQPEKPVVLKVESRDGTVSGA
T3 sequence (P11712 whole entry): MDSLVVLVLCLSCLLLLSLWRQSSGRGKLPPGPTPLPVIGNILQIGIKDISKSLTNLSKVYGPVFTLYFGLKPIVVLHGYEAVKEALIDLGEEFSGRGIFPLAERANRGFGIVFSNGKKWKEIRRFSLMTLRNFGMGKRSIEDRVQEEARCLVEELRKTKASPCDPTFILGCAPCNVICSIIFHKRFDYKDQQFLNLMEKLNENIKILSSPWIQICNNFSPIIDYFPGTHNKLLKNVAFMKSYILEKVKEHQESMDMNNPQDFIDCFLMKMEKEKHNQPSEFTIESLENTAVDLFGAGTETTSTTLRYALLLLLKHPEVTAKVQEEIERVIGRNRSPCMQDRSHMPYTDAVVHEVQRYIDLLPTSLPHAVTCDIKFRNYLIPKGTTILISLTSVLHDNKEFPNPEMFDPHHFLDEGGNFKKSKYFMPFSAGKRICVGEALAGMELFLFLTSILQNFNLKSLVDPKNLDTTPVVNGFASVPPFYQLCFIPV

One may read the IC50 as the concentration that inhibits the measured activity by half. A high value points to weaker potency. As to `N#CC(C#N)=NNc1ccc(NC(=O)c2ccc(F)cc2)nc1` [Compound 16, (6-(4-fluorobenzamido)pyridin-3-yl)carbonohydrazonoyl dicyanide], in [1], the “Rat (%)” value is 61%. In addition, at tau protein (48 h, compound 10 μM, BiFC fluorescence, Forskolin-only group = 100% tau protein-aggregated state, read-out: Response (% @10 μM)), the remaining activity at 10 µM amounted to 0%. At tau protein (Tau BiFC in cells, with Forskolin 30 μM, 48 hours), the midpoint of inhibition, the IC50, lay at 110 nM. Besides, on CYP3A4, the CYP3A4 came out at 86.9. Further, the CYP2C9 at CYP2C9 is listed as 40.3. In addition, the CYP2C19 at CYP2C19 stood at 78.6. On CYP1A2, this compound had a CYP1A2 of 71.4. On CYP2D6, this compound had a CYP2D6 of 80.8. For the same compound, the “Mouse (%)” value in data set [2] turned out to be 67.3%. In addition, the “Cell viability (% @10 μM)” value in the data set on Tau-BiFC cells is given as 66.2%. Besides, the “Human (%)” value in data set [3] came to 91.6%. The “Dog (%)” value in [4] is reported as 59.5%.
